In general, LOAEL refers to the lowest tested level that showed an adverse finding. The term NOAEL denotes the highest dose or exposure tested at which no adverse effect was seen.

Some results are limits rather than exact numbers.

The record followed here is EPA's ToxValDB 9.5.

Series [1] has as its system Rattus norvegicus. To be noted: M/F.
Series [2] deals with Mus musculus. The note with it: uterotrophic, injection, Active.
The subject of series [3] is Rattus norvegicus. To be noted: uterotrophic, Active.
Series [4] deals with Mus musculus. The note with it: developmental, oral, gavage, developmental.
Series [5] relates to Rattus norvegicus. The note with it: chronic; duration: 27 weeks; oral; diet; Liver: Lesions.
Series [6] deals with Pelecanus occidentalis. The note with it: oral.
Series [7] deals with Rattus norvegicus. To be noted: repeat dose other; oral.
Series [8] relates to Rattus norvegicus. To be noted: Wistar.
For series [9], the system named is Mus musculus. To be noted: repeat dose other; oral.
For series [10], the system named is Coturnix japonica. The note with it: repeat dose other; oral.
Series [11] deals with Canidae. To be noted: chronic; oral; M/F; Dog Other; histological lesions in liver, occasional convulsions.
In series [12] the test system is Canidae. The note with it: chronic; duration: 2 years; oral; diet; F; Beagle; neurological, hepatic.
For series [13], the system named is Canidae. The note with it: chronic; duration: 2 years; oral; diet; Dog Other; Central nervous system: Convulsions + Liver: Lesions.
Series [14] has as its system Megascops sp. To be noted: oral.
Series [15] relates to Mus musculus. The note with it: oral, M/F.
The test system of series [16] is Chrysomus sp. The note with it: oral.
Series [17] deals with Mus musculus. To be noted: chronic; duration: 119 days; oral; diet; M/F; CD1; hepatic.
The test system of series [18] is Rattus norvegicus. The note with it: subchronic; duration: 13 weeks; oral; gavage; M/F; Fischer 344; Deaths + Body Weight Changes: decrease + Absolute Organ Weight: Right kidney increase, Liver increase, Thymus decrease + Relative Organ ….
Series [19] deals with Mus musculus. The note with it: subchronic; duration: 13 weeks; oral; gavage; Liver: Lesions.
The subject of series [20] is Oryctolagus sp. To be noted: subchronic; inhalation; M/F; functional and histological peripheral neurotoxicity.
For series [21], the system named is Oryctolagus sp. To be noted: chronic; duration: 5 months; inhalation; intermittent; Nervous system: Neurotoxicity.
Series [22] concerns Cavia sp. To be noted: acute; Inhalation; Harley.
Series [23] has as its system Mus musculus. The note with it: acute.
Series [24] relates to Oryctolagus sp. The note with it: dermal; for LD50: acute.
Series [25] concerns Cavia porcellus. To be noted: acute; Inhalation; Guinea Pig.
Series [26] has as its system Rattus norvegicus. To be noted: for LC50 / LD50: acute, Wistar.
Setting [27] is: chronic, duration: 27 weeks, oral, diet, liver lesions.
Where [28] appears, read: chronic, duration: 104 weeks, hepatic necrosis.
The mark [29] stands for this setting: subchronic, duration: 3 months, oral, diet.

Consider `Clc1ccc(C(c2ccc(Cl)cc2)C(Cl)(Cl)Cl)cc1` [DDT], for which the lowest observed adverse effect level (LOAEL) in series [1] (setting [27]) is 0.39 mg/kg-day; in series [4] (duration: 14 days, M, NMRI) it was 0.5 mg/kg-day; in series [6], 0.028 mg/kg-day; in series [7], 4 mg/kg-day. Moreover, the NOEL in [1] (setting [27]) and in [5] was 0.05 mg/kg-day throughout. The LEL in series [2] (duration: 3 days, intraperitoneal) amounted to 100 mg/kg-day; in series [2] (duration: 3 days, subcutaneous), 1000 mg/kg-day; in series [2] (duration: 5 days, subcutaneous) it was 10 mg/kg-day; in series [3] (duration: 1 days, injection, intraperitoneal), 12.5 mg; in [3] (duration: 3 days, injection, intraperitoneal), 4 mg; in [3] (duration: 3 days, oral), 100 mg/kg-day. In addition, the figures for the no observed adverse effect level (NOAEL) in series [6] and in [7] were 0.0028 mg/kg-day and 0.8 mg/kg-day, respectively.
In the case of `CCC[CH2][Sn]([CH2]CCC)([CH2]CCC)[O][Sn]([CH2]CCC)([CH2]CCC)[CH2]CCC` [Bis(tributyltin)oxide], the NOAEL turned out to be 0.025 mg/kg-day in [8] (chronic, duration: 6 months, oral, diet, M, immunological); 0.025 mg/kg-day in [8] (chronic, duration: 18 months, oral, diet, M, immunological); 23.4 mg/kg-day in series [9]; 6.8 mg/kg-day in [10]. Also, the lowest observed adverse effect level (LOAEL) was determined as 35 mg/kg-day in series [9] and 16.9 mg/kg-day in [10].
Turning to `ClC1=C(Cl)[C@]2(Cl)[C@@H]3[C@H]4C[C@H]([C@@H]5O[C@H]45)[C@@H]3[C@@]1(Cl)C2(Cl)Cl` [Endrin], the LOAEL is 0.05 mg/kg-day in [11], 0.92 mg/kg-day in [9] and 0.1 mg/kg-day in series [14]. Besides, the NOEL in series [11] and in series [13] was 0.025 mg/kg-day throughout. Moreover, the no-observed-adverse-effect level (NOAEL) is 0.025 mg/kg-day in series [12], 0.092 mg/kg-day in series [9] and 0.01 mg/kg-day in series [14].
In the case of `ClC1=C(Cl)C2(Cl)C3C(Cl)C(Cl)CC3C1(Cl)C2(Cl)Cl` (centres undefined) [Technical chlordane], the lowest observed adverse effect level (LOAEL) was 0.75 mg/kg-day in series [15] (setting [28]); 1 mg/kg-day in [4] (duration: 7 days, M/F, albino); 9.2 mg/kg-day in [9]; 10.7 mg/kg-day in [16]. Further, the NOAEL was 0.15 mg/kg-day in series [15] (setting [28]); 1 mg/m3 in [1] (subchronic, inhalation, hepatic effects); 0.1 mg/m3 in series [8] (subchronic, duration: 90 days, inhalation, M/F, hepatic); 4.6 mg/kg-day in [9]; 2.14 mg/kg-day in series [16].
Regarding `CN(C)C=O` [N,N-Dimethylformamide], in series [17], the NOAEL was 96 mg/kg-day.
For the compound `c1ccoc1` [Furan], the NOAEL in series [15] (subchronic, hepatic lesions) amounted to 2 mg/kg-day; in series [19], 1.4 mg/kg-day. The compound further gave an LOAEL in [1] (subchronic, oral, hepatic lesions) of 4 mg/kg-day. The NOEL in series [18] was below 4 mg/kg-day.
Turning to `C=CCCl` [Allyl chloride], in [20], the lowest observed adverse effect level (LOAEL) was 206 mg/m3 and the NOAEL is 17 mg/m3. The NOAEL in [21] came out at 17 mg/m3.
In the case of `CCC(C)(CCC(C)C)C(=O)O` (centres undefined) [Neodecanoic acid], the LC50 in series [22] is above 511 mg/m3; in series [23] (Inhalation, Swiss albino), above 511 mg/m3; in [23] (inhalation, Swiss), above 3 µg/mL; in series [26] (Inhalation) it was above 511 mg/m3; in [26] (inhalation), above 3 µg/mL. Moreover, the LD50 in series [22] is above 511 mg/m3; in series [23] (Inhalation, Swiss) it was above 511 mg/m3; in [23] (inhalation, Swiss) it was above 3 mg/L; in [24], above 3160 mg/kg; in series [24] (occlusive), above 3160 mg/kg; in [25], above 511 mg/m3. The LD50 is above 511 mg/m3 in [26] (Inhalation) and above 3 mg/L in series [26] (inhalation). For the same compound, the NOAEL in [24] (repeat dose other, M) amounted to 2280 mg/kg-day; in series [26] (reproduction developmental, oral, diet, Sprague-Dawley, generation: F0), 1500 ppm; in [26] (reproduction developmental, oral, diet, Sprague-Dawley, generation: F1), 1500 ppm; in [26] (reproduction developmental, oral, diet, Sprague-Dawley, generation: F2), 1500 ppm; in series [26] (setting [29]) it was 48 mg/kg-day. The compound further had an LOAEL in series [26] (setting [29]) of 144 mg/kg-day.
